# Biological target: T1, human recombinant mGluR5 (Homo sapiens, UniProt P41594)
# T1 construct: expressed in transfected cells; hygromycin and geneticin selection
# Test: positive modulation of mGluR5, calcium based FLIPR assay
# Settings: HEK 293 cell line expressing human recombinant mGluR5; Ca2+ peak height after glutamate at approximately 5% basal stimulation; nonlinear regression
# Method in brief: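 HEK293 cells with tetracycline-free induction, Calcium-4 dye-loaded in Ringer pH 7.4. Compound added 5 min before glutamate at ~5% of maximal effect, 1% DMSO. EC50 from peak Ca2+ fluorescence, normalized to basal glutamate (100%) and 10 μM CDPPB (200%), via nonlinear regression.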
# T1 sequence (P41594 21-1212): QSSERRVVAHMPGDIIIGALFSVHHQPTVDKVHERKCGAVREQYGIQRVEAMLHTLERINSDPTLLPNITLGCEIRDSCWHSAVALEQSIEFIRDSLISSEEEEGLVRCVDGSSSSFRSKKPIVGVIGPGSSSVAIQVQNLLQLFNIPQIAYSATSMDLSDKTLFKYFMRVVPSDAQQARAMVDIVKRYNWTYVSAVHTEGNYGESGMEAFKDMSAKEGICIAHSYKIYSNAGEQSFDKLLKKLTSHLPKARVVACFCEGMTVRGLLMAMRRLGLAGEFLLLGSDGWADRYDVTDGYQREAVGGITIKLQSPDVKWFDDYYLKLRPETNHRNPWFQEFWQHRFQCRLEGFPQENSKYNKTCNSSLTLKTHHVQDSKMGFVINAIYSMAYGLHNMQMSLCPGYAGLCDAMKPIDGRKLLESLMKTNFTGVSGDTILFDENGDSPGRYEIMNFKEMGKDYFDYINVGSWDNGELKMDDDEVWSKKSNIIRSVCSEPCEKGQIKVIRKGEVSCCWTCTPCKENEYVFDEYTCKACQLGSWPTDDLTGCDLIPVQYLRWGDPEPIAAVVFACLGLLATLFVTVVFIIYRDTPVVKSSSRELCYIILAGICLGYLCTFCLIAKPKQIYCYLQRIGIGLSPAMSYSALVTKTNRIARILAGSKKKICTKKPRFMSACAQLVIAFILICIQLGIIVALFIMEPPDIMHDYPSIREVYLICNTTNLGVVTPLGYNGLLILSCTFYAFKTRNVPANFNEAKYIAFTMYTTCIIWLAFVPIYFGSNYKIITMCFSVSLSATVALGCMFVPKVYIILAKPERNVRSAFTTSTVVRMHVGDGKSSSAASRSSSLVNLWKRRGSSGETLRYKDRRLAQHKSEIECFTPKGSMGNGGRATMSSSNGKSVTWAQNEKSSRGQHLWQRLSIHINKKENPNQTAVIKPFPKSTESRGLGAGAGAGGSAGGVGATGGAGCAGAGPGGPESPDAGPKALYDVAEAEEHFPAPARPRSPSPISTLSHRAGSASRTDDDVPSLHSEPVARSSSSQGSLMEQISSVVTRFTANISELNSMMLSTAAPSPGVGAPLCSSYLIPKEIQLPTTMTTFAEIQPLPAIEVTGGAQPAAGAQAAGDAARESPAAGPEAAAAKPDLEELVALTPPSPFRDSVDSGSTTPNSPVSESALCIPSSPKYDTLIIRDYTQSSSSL
row,EC50,SMILES
1,25 nM,COc1nc(C(=O)N2CCN(C(=O)c3ncn(-c4ccccc4)n3)C(C)(C)C2)cc2ccccc12 [Example 97]
2,45 nM,COc1cc(Cl)cc(C(=O)N2CCN(C(=O)c3ncn(-c4cccc(Cl)c4)n3)C(C)(C)C2)n1 [Example 17]
3,96 nM,CC(C)c1ccc(C(=O)N2CCN(C(=O)c3ncn(-c4cccc(Cl)c4)n3)C(C)(C)C2)cc1 [Example 61]
4,25 nM,COc1cc(Cl)cc(C(=O)N2CCN(C(=O)c3nnn(-c4ccccc4)n3)C(C)(C)C2)n1 [Example 165]
5,80 nM,COc1cccc(C(=O)N2CCN(C(=O)c3ncn(-c4cccc(Cl)c4)n3)C(C)(C)C2)c1 [Example 43]
6,487 nM,CC1(C)CN(C(=O)c2csc(C3CC3)n2)CCN1C(=O)c1ncn(-c2ccccc2)n1 [Example 141]
7,1510 nM,Cc1cc(-n2cnc(C(=O)N3CCN(C(=O)c4c(C)oc5ccccc45)CC3(C)C)n2)ccc1F [Example 163]
8,251 nM,"COc1cccc(C(=O)N2[C@H](C)CN(C(=O)c3ncn(-c4cccc(C)c4)n3)C[C@@H]2C)n1 [Example 263, (2R*,6S*)-1-[(6-Methoxypyridin-2-yl)carbonyl]-2,6-dimethyl-4-{[1-(3-methylphenyl)-1H-[1,2,4]-triazol-3-yl]carbonyl}piperazine]"
9,24 nM,CC1(C)CN(C(=O)c2cccc(Cl)c2)CCN1C(=O)c1nnn(-c2ccccc2)n1 [Example 187]
10,327 nM,CC1CN(C(=O)c2cc3c(Cl)cccc3s2)CCN1C(=O)c1ncn(-c2cccc(Cl)c2)n1 (stereo not shown) [Example 268]
11,113 nM,COc1nc(C(=O)N2CCN(C(=O)c3ncn(-c4ccccc4)n3)C(C)(C)C2)cc2cc(F)c(F)cc12 [Example 148]
12,39 nM,"CC1(C)CN(C(=O)c2cccc(Cl)c2)CCN1C(=O)c1ncn(-c2ccccc2)n1 [Example 186, [4-(3-Chloro-benzoyl)-2,2-dimethyl-piperazin-1-yl]-(1-phenyl-1H-[1,2,4]-triazol-3-yl)-methanone]"
13,538 nM,CC1CN(C(=O)c2cc(Br)c(Br)o2)CCN1C(=O)c1ncn(-c2cccc(Cl)c2)n1 (stereo not shown) [Example 266]
14,33 nM,Cc1cccc(-n2cnc(C(=O)N3CCN(C(=O)c4cccc(Cl)c4)CC3(C)C)n2)c1 [Example 188]
15,356 nM,CCCOc1cccc(C(=O)N2CCN(C(=O)c3ncn(-c4cccc(Cl)c4)n3)CC2C)c1 (stereo not shown) [Example 219]
16,25 nM,CC1(C)CN(C(=O)c2cccc(C(F)(F)F)c2)CCN1C(=O)c1ncn(-c2cccc(Cl)c2)n1 [Example 14]
17,230 nM,COc1ccc(C(=O)N2CCN(C(=O)c3ncn(-c4cccc(Cl)c4)n3)C(C)(C)C2)nc1OC [Example 79]
18,28 nM,CC1(C)CN(C(=O)c2cccc(C3CC3)n2)CCN1C(=O)c1nnn(-c2cccc(Cl)c2)n1 [Example 182]
19,88 nM,COc1nc(C(=O)N2CCN(C(=O)c3ncn(-c4cccc(Cl)c4)n3)C(C)(C)C2)cc2ccccc12 [Example 42]
20,817 nM,COc1ccc2c(C)c(C(=O)N3CCN(C(=O)c4ncn(-c5cccc(Cl)c5)n4)CC3C)oc2c1 (stereo not shown) [Example 213]
21,285 nM,CC1(C)CN(C(=O)c2cccc(-c3ccn[nH]3)n2)CCN1C(=O)c1ncn(-c2cccc(Cl)c2)n1 [Example 94]
22,169 nM,"COc1cccc(C(=O)N2CCN(C(=O)c3ncn(-c4cccc(Cl)c4)n3)C[C@H]2C)n1 [Example 248, (R)-{4-[1-(3-Chloro-phenyl)-1H-[1,2,4]triazole-3-carbonyl]-2-methyl-piperazin-1-yl}-(6-methoxy-pyridin-2-yl)-methanone]"

row,EC50,SMILES
1,264 nM,CC1CN(C(=O)c2cn(C)c3ccccc23)CCN1C(=O)c1ncn(-c2cccc(Cl)c2)n1 (stereo not shown) [Example 276]
2,31 nM,CC(C)(C)c1cccc(C(=O)N2CCN(C(=O)c3ncn(-c4ccccc4)n3)C(C)(C)C2)c1 [Example 130]
3,269 nM,"COc1cccc(C(=O)N2CCN(C(=O)c3ncn(-c4cccc(C)c4)n3)C(C)C2)n1 (stereo not shown) [Example 296, [4-(6-Methoxy-pyridine-2-carbonyl)-2-methyl-piperazin-1-yl]-(1-m-tolyl-1H-[1,2,4]-triazol-3-yl)-methanone]"
4,174 nM,COc1ccc2oc(C)c(C(=O)N3CCN(C(=O)c4ncn(-c5cccc(C)c5)n4)CC3C)c2c1 (stereo not shown) [Example 237]
5,62 nM,COc1nc(C(=O)N2CCN(C(=O)c3ncn(-c4cccc(Cl)c4)n3)C(C)(C)C2)cc2cc(F)ccc12 [Example 21]
6,51 nM,CC1(C)CN(C(=O)c2cc(Cl)c3c(c2)OCCO3)CCN1C(=O)c1ncn(-c2cccc(Cl)c2)n1 [Example 19]
7,129 nM,CC1(C)CN(C(=O)c2cc3ccccc3c(C3CC3)n2)CCN1C(=O)c1ncn(-c2cccc(Cl)c2)n1 [Example 204]
8,350 nM,CC1(C)CN(C(=O)c2cc3ccccc3cn2)CCN1C(=O)c1ncn(-c2cccc(Cl)c2)n1 [Example 35]
9,233 nM,COc1ccc(C(=O)N2CCN(C(=O)c3ncn(-c4cccc(Cl)c4)n3)C(C)(C)C2)s1 [Example 76]
10,69 nM,CCc1ccc(C(=O)N2CCN(C(=O)c3ncn(-c4cccc(Cl)c4)n3)C(C)(C)C2)o1 [Example 60]
11,693 nM,COc1cccc(C(=O)N2CCN(C(=O)c3ncn(-c4ccc(C)c(F)c4)n3)C(C)(C)C2)n1 [Example 159]
12,53 nM,Cc1cccc(-n2cnc(C(=O)N3CCN(C(=O)c4cc(Cl)c5c(c4)OCCO5)CC3(C)C)n2)c1 [Example 9]
13,475 nM,Cc1cc(-n2cnc(C(=O)N3CCN(C(=O)c4cc(Cl)c5c(c4)OCCO5)CC3(C)C)n2)ccc1F [Example 162]
14,264 nM,COc1cccc(C(=O)N2CCN(C(=O)c3ncn(-c4cccc(Cl)c4)n3)CC2C)n1 (stereo not shown) [Example 211]
15,589 nM,CC1(C)CN(C(=O)c2ccnc(C(F)(F)F)n2)CCN1C(=O)c1ncn(-c2ccccc2)n1 [Example 143]
16,597 nM,CC(C)COc1cccc(C(=O)N2CCN(C(=O)c3ncn(-c4cccc(Cl)c4)n3)C(C)C2)c1 (stereo not shown) [Example 282]
17,207 nM,"COc1nc(C(=O)N2CCN(C(=O)c3ncn(-c4ccc(F)c(C)c4)n3)C(C)(C)C2)cc2ccccc12 [Example 160, [1-(4-Fluoro-3-methyl-phenyl)-1H-[1,2,4]triazol-3-yl]-[4-(1-methoxy-isoquinoline-3-carbonyl)-2,2-dimethyl-piperazin-1-yl]-methanone]"
18,153 nM,CCC1CN(C(=O)c2ncn(-c3cccc(F)c3)n2)CCN1C(=O)c1cc(Br)c(Br)o1 (stereo not shown) [Example 260]
19,216 nM,COc1cccc(C(=O)N2CCN(C(=O)c3ncn(-c4cccc(C)c4)n3)CC2C)n1 (stereo not shown) [Example 244]
20,58 nM,COc1cc(C)cc(C(=O)N2CCN(C(=O)c3ncn(-c4cccc(Cl)c4)n3)C(C)(C)C2)n1 [Example 22]
21,168 nM,CC1(C)CN(C(=O)c2cc(C(F)(F)F)ccn2)CCN1C(=O)c1ncn(-c2cccc(Cl)c2)n1 [Example 89]
22,852 nM,COc1ccnc(C(=O)N2CCN(C(=O)c3ncn(-c4cccc(Cl)c4)n3)C(C)(C)C2)c1 [Example 40]

row,EC50,SMILES
1,931 nM,CCC1(CC)CN(C(=O)c2cccc(Cl)c2)CCN1C(=O)c1ncn(-c2ccccc2)n1 [Example 313]
2,152 nM,"Cc1cccc(-n2cnc(C(=O)N3CCN(C(=O)c4cc(Br)c(Br)o4)[C@@H](C)C3)n2)c1 [Example 255, (S)-[4-(4,5-Dibromo-furan-2-carbonyl)-3-methyl-piperazin-1-yl]-(1-m-tolyl-1H-[1,2,4]triazol-3-yl)-methanone]"
3,62 nM,CC1(C)CN(C(=O)c2cc3ccccc3c(C3CC3)n2)CCN1C(=O)c1ncn(-c2ccccc2)n1 [Example 203]
4,125 nM,COc1nc(C(=O)N2CCN(C(=O)c3nnn(-c4cccc(Cl)c4)n3)C(C)(C)C2)cc2ccccc12 [Example 208]
5,122 nM,Cc1cc2cc(C(=O)N3CCN(C(=O)c4ncn(-c5ccccc5)n4)C(C)(C)C3)ccc2[nH]1 [Example 142]
6,383 nM,Cc1cc(Cl)cc(C(=O)N2CCN(C(=O)c3ncn(-c4cccc(Cl)c4)n3)C(C)(C)C2)n1 [Example 36]
7,254 nM,Cn1nc(C(=O)N2CCN(C(=O)c3ncn(-c4ccccc4)n3)C(C)(C)C2)c2ccccc21 [Example 123]
8,170 nM,Cc1oc2ccccc2c1C(=O)N1CCN(C(=O)c2ncn(-c3cccc(Cl)c3)n2)C(C)C1 (stereo not shown) [Example 275]
9,145 nM,CC(=O)c1cccc(C(=O)N2CCN(C(=O)c3ncn(-c4ccccc4)n3)C(C)(C)C2)n1 [Example 124]
10,64 nM,CC1(C)CN(C(=O)c2cccc(-c3cccc(C#N)c3)c2)CCN1C(=O)c1ncn(-c2cccc(Cl)c2)n1 [Example 55]
11,58 nM,CC1(C)CN(C(=O)c2cccc(C3(F)COC3)c2)CCN1C(=O)c1ncn(-c2cccc(Cl)c2)n1 [Example 23]
12,568 nM,Cc1c(C(=O)N2CCN(C(=O)c3ncn(-c4cccc(Cl)c4)n3)CC2C)oc2ccc(F)cc12 (stereo not shown) [Example 212]
13,242 nM,Cc1nn(C)cc1-c1cccc(C(=O)N2CCN(C(=O)c3ncn(-c4cccc(Cl)c4)n3)C(C)(C)C2)n1 [Example 93]
14,445 nM,O=C(c1cc(Br)c(Br)o1)N1CCN(C(=O)c2ncn(-c3cccc(F)c3)n2)C2(CCC2)C1 [Example 306]
15,21 nM,Cc1c(C(=O)N2CCN(C(=O)c3ncn(-c4ccccc4)n3)C(C)(C)C2)oc2ccccc12 [Example 134]
16,53 nM,COc1cccc(-c2cccc(C(=O)N3CCN(C(=O)c4ncn(-c5cccc(Cl)c5)n4)C(C)(C)C3)c2)c1 [Example 69]
17,174 nM,CC1CN(C(=O)c2ncn(-c3cccc(Cl)c3)n2)CCN1C(=O)c1cc(Cl)c2c(c1)OCCO2 (stereo not shown) [Example 221]
18,49 nM,CC1(C)CN(C(=O)c2cccc(C3CC3)n2)CCN1C(=O)c1ncn(-c2ccccc2)n1 [Example 183]
19,422 nM,CC1CN(C(=O)c2ncn(-c3cccc(Cl)c3)n2)CCN1C(=O)c1cccc(-c2nccs2)c1 (stereo not shown) [Example 218]
20,326 nM,Cc1cccc(-n2cnc(C(=O)N3CCN(C(=O)c4cc(Cl)c5c(c4)OCCO5)C(C)C3)n2)c1 (stereo not shown) [Example 239]

# — patent publication US8883789B2, “Piperazine derivatives and their use as positive allosteric modulators of mGluR5 receptors” (Boehringer Ingelheim International GmbH, priority 2011, dated 2014)
